This passage reports mutagenic call results from PubChem BioAssay AID1259407 (Chemical Carcinogenesis Research Information System (CCRIS), 2018).

The test system of this data set is CCRIS mutagenicity, Ames/micronucleus/aberration tests. Description: CCRIS mutagenicity studies. The conditions noted are these: Test System: AMES SALMONELLA TYPHIMURIUM
The mark [1] stands for this setting: Strain/Indicator: TA98, Metabolic Activation: NONE, Method: STANDARD PLATE.
Setting [2] is: Strain/Indicator: TA98, Metabolic Activation: RAT, LIVER, S-9, AROCLOR 1254, Method: STANDARD PLATE.
[3] abbreviates: Strain/Indicator: TA100, Metabolic Activation: RAT, LIVER, S-9, AROCLOR 1254, Method: STANDARD PLATE.
The mark [4] stands for this setting: Strain/Indicator: TA102, Metabolic Activation: NONE, Method: STANDARD PLATE.
[5] abbreviates: Strain/Indicator: TA102, Metabolic Activation: RAT, LIVER, S-9, AROCLOR 1254, Method: STANDARD PLATE.

The structures appear in SMILES notation. Active and inactive are the calls of the source. No rule for the calls is given here.

`NC(=O)NCC(=O)O`: the mutagenic call was “inactive; negative” (Strain/Indicator: TA97, Metabolic Activation: NONE, Method: STANDARD PLATE); “inactive; negative” (Strain/Indicator: TA97, Metabolic Activation: RAT, LIVER, S-9, AROCLOR 1254, Method: STANDARD PLATE); “inactive; negative” under setting [1]; “inactive; negative” under setting [2]; “inactive; negative” (Strain/Indicator: TA100, Metabolic Activation: NONE, Method: STANDARD PLATE); “inactive; negative” under setting [3]. Further, the mutagenic call reads like this: under setting [4], “inactive; negative”; under setting [5], “inactive; negative”.
In the case of `O=C1OCC(C(Cl)Cl)=C1Cl`, the mutagenic call runs as follows: under setting [1], “inactive; negative”; under setting [2], “inactive; negative”; under setting [4], “active; positive”; under setting [5], “inactive; negative”.
With `O=C([O-])[C@H](O)[C@@H](O)[C@H](O)[C@H](O)CO.O=C([O-])[C@H](O)[C@@H](O)[C@H](O)[C@H](O)CO.[Cu+2]`, the mutagenic call (Strain/Indicator: TA97, Metabolic Activation: NONE, Method: PREINCUBATION) is “inactive; negative”; the mutagenic call (Strain/Indicator: TA97, Metabolic Activation: S-9, Method: PREINCUBATION) is “inactive; negative”; the mutagenic call (Strain/Indicator: TA102, Metabolic Activation: NONE, Method: PREINCUBATION) was “inactive; negative”; the mutagenic call (Strain/Indicator: TA102, Metabolic Activation: S-9, Method: PREINCUBATION) is “inactive; negative”.
Regarding `CCCCCn1cc2c3c(cccc31)[C@H]1C=C(C)CN(C)[C@@H]1C2`, the mutagenic call under setting [3] was “active; positive”.
